Assay results from patent US9175031B2, “Ketolide compounds” (WOCKHARDT LIMITED, priority 2010, dated 2015).
Converted amounts (≈) assume the structure as drawn. Blank lines part the entries; values can stand above or below the molecule they belong to.

Key:
[1] = test system: H influenzae; assay: MIC, CLSI agar dilution method; assay type: cell-based; conditions: 18 hrs at 37° C.
Protocol: (§1) The antibacterial activity of compounds of the invention was evaluated by determining the minimal inhibitory concentration (MIC) according to standard CLSI agar dilution method. The media used for preculture and main culture were Tryptic Soya broth (Difco) and Mueller Hinton medium (Difco), respectively. The Mueller Hinton agar was supplemented with 5% sheep blood for streptococci and pneumococci, and with haemoglobin as well as NAD (nicotinamide adenine dinucleotide) for Haemophilus influenzae, respectively. Overnight cultures were diluted with buffered saline (pH 7.2) to the final cell density of 5×10^6-10^7 CFU/ml, and each bacterial suspension was applied with a replicator (Denley's multipoint inoculator, UK) onto a series of Mueller-Hinton agar plates containing antibacterial agents at various concentrations. Final inoculum was approximately 10^4 CFU/spot. The plates were incubated for 18 hrs at 37° C. The MIC was defined as the lowest concentration of an antibacterial agent that inhibits the development of visible microbial growth on agar.

[2] = test system: S pneumoniae 3773, a high level ermb strain; assay: MIC, CLSI agar dilution method; assay type: cell-based; conditions: S pneumoniae 3773, high level ermb strain, 18 hrs at 37° C.
Protocol: as §1

[3] = test system: S pneumoniae ermb strains; assay: MIC, CLSI agar dilution method; assay type: cell-based; conditions: 18 hrs at 37° C.
Protocol: as §1

[4] = test system: S pneumoniae mef strains; assay: MIC, CLSI agar dilution method; assay type: cell-based; conditions: 18 hrs at 37° C.
Protocol: as §1

[5] = test system: S pneumoniae sensitive strains; assay: MIC, CLSI agar dilution method; assay type: cell-based; conditions: 18 hrs at 37° C.
Protocol: as §1

[6] = test system: S pyogene 3530, a high level ermb strain; assay: MIC, CLSI agar dilution method; assay type: cell-based; conditions: S pyogene 3530, high level ermb strain, 18 hrs at 37° C.
Protocol: as §1

[7] = test system: S pneumoniae 3773; assay: In vivo oral efficacy (ED50) in mice intraperitoneally infected with S pneumoniae 3773; conditions: Mus musculus, two doses at 1 hour and 4 hour after intraperitoneal infection with S pneumoniae 3773, survival on day seven, read-out: ED50 (Dose protecting 50% of infected mice)
Protocol: The in vivo efficacy of compounds of the invention was evaluated by determining ED50 by oral administration of compounds to group of mice (6 mice/dose group) intraperitoneally infected with (5×10^7-1×10^8 CFU/mouse) S pneumoniae 3773. Two doses of compounds of the invention and Telithromycin were administered at 1 hour and 4 hour after infection. On day seven, percentage of animals surviving in various dose groups were employed to determine ED50 (Dose protecting 50% of infected mice)

MIC [1]: 4 to 8 µg/mL (≈ 4.93 to 9.85 µM) | MIC [2]: 4 µg/mL (≈ 4.93 µM) | MIC [3]: 0.007 to 0.5 µg/mL (≈ 0.00862 to 0.616 µM) | MIC [4]: 0.015 to 1 µg/mL (≈ 0.0185 to 1.23 µM) | MIC [5]: 0.007 to 0.015 µg/mL (≈ 0.00862 to 0.0185 µM) | MIC [6]: 16 µg/mL (≈ 19.7 µM)
SMILES: CC[C@H]1OC(=O)[C@H](C)C(=O)[C@H](C)[C@@H](O[C@@H]2O[C@H](C)C[C@H](N(C)C)[C@H]2O)[C@](C)(OC)C[C@@H](C)C(=O)[C@H](C)[C@H]2N(CCCCn3cnc(-c4cccnc4)c3)C(=O)O[C@]12C [Telithromycin]
ED50 [7]: 75 to 100 mg/kg

melting point: 192 to 194 °C
SMILES: CC[C@@H]1OC(=O)[C@@](C)(F)C(=O)[C@H](C)[C@@H](OC2O[C@H](C)C[C@H](N(C)C)[C@H]2O)[C@](C)(OC)C[C@@H](C)C(=O)[C@H](C)[C@H]2[C@H](/C(N)=N/OCc3nnc(-c4ncccn4)s3)C(=O)O[C@@]21C (stereo partly drawn) [Example 7, (11S,21R)-3-decladinosyl-11,12-dideoxy-2-fluoro-6-O-methyl-3-oxo-12,11-{oxycarbonyl-[E-N-[(5-pyrimidin-2-yl-1,3,4-thiadiazol-2-yl)-methoxy]-carboxamidino]methylene}-erythromycin A]

melting point: 196 to 197 °C
SMILES: CC[C@@H]1OC(=O)[C@@](C)(F)C(=O)[C@H](C)[C@@H](OC2O[C@H](C)C[C@H](N(C)C)[C@H]2O)[C@](C)(OC)C[C@@H](C)C(=O)[C@H](C)[C@H]2[C@H](/C(N)=N/OCc3ncc(-c4ccon4)cn3)C(=O)O[C@@]21C (stereo partly drawn) [Example 3, (11S,21R)-3-decladinosyl-11,12-dideoxy-2-fluoro-6-O-methyl-3-oxo-12,11-{oxycarbonyl-[E-N-[(5-isoxazol-3-yl-pyrimidin-2-yl)-methoxy]-carboxamidino]methylene}-erythromycin A]

melting point: 135 to 137 °C
SMILES: CC[C@@H]1OC(=O)[C@H](C)C(=O)[C@H](C)[C@@H](OC2O[C@H](C)C[C@H](N(C)C)[C@H]2O)[C@](C)(OC)C[C@@H](C)C(=O)[C@H](C)[C@H]2[C@H](/C(N)=N/O[C@@H](C)c3nnc(-c4ccccn4)s3)C(=O)O[C@@]21C (stereo partly drawn) [Example 33, (11S,21R)-3-decladinosyl-11,12-dideoxy-6-O-methyl-3-oxo-12,11-{oxycarbonyl-[E-N-[1-(5-pyridin-2-yl-1,3,4-thiadiazol-2-yl)-(S)-ethoxy]-carboxamidino]methylene}-erythromycin A]
